Values quoted from earlier work, collected in patent US10357529B2, “Natural formulation for treating hangover” (RVRS, LLC, priority 2016, dated 2019).

Assays:
[1] = test system: rats
[2] = test system: BZ-sites on GABAAR; conditions: competitive; read-out: IC50, inhibition of BZ-site [3H]flunitrazepam binding
[3] = test system: GABAAR; conditions: 1 μM; hippocampus and cultured neurons

O=C1c2c(O)cc(O)cc2O[C@H](c2cc(O)c(O)c(O)c2)[C@H]1O [DHM, Dihydromyricetin]
EtOH consumption in an intermittent voluntary EtOH intake paradigm [1]: greatly reduced EtOH consumption
effect on acute alcohol (EtOH) intoxication and withdrawal signs ([1]; 1 mg/kg, i.p. injection): counteracted acute alcohol (EtOH) intoxication
IC50 [2]: 4.36 µM
effect on EtOH-induced potentiation of GABAAR's and GABAAR plasticity [3]: antagonized both acute EtOH-induced potentiation of GABAAR's and EtOH exposure/withdrawal-induced GABAAR plasticity
